Data taken from US9279812B2, “Neuregulin-1-based prognosis and therapeutic stratification of colorectal cancer” (UNIVERSITEIT GENT, priority 2011, dated 2016).

Legend:
[1] = tested on: AKT; experiment: Western blot of S473 p-AKT (AKT activation) in HCT-8/E11 cells; assay type: cell-based, human; details: for reduction of AKT activation (S473 p-AKT) in CM^BM-MSC-treated cells: HCT-8/E11, CM^BM-MSC 15 minutes, cetuximab 3 μM, lapatinib 1 μM, trastuzumab and pertuzumab 25 μg/ml
Procedure: (§1) Cells were harvested with Laemmli lysis buffer (0.125M Tris-HCl (pH=6.8), 10% glycerol, 2.3% sodium dodecyl sulfate [SDS]). Cell surface proteins were isolated by biotinylation (Pierce). For the detection of phosphorylated proteins, cells were grown at 70% confluence and treated for 15 minutes as indicated. Cells were harvested with NP-40 lysis buffer (1% Nonidet P-40 [NP-40][Sigma-Aldrich], 1% Triton X-100 [Bio-Rad] in phosphate-buffered saline [PBS]) and the following protease inhibitors: aprotinin (10 μg/mL), leupeptin (10 μg/mL) (ICN Biomedicals, Costa Mesa, Calif.), phenylmethylsulfonyl fluoride (1.72 mM), NaF (100 mM), NaVO3 (500 mM), and Na4P2O7 ([…]) (Sigma-Aldrich). Cell lysates (25 μg) and CM (20 μl) were suspended in Laemmli sample buffer and boiled for 5 minutes at 95° C. For immunoprecipitation, cells were harvested with NP-40 lysis buffer, and protease inhibitors. Anti-rabbit antibodies were covalently coupled to sheep anti-rabbit IgG dynabeads (Invitrogen) and then incubated for 2 hours at 4° C. with 500 μg of cell lysate or normal rabbit IgG antibody (R&D Systems) as a negative control. Immunoprecipitates were washed five times with lysis buffer, eluted with 100 μl of Laemmli lysis buffer, and boiled at 95° C. for 5 minutes. Samples were run on NuPAGE 4%-20% Bis-Tris gradient gels (Invitrogen), transferred to polyvinylidene fluoride membranes, blocked in 5% nonfat milk in PBS or 4% bovine serum albumin (BSA) in PBS for phosphorylated proteins with 0.5% Tween-20, and immunostained. Scanning densitometry was carried out with the Quantity One Program (Bio-Rad).

[2] = tested on: HCT-8/E11 cells; experiment: Single cell collagen invasion assay, HCT-8/E11; assay type: cell-based, human; details: for CM^BM-MSC-induced invasion (invasion index) / CM^BM-MSC-induced morphological response (factor shape): cetuximab 3 μM, lapatinib 1 μM, trastuzumab and pertuzumab 25 μg/ml
Procedure: (§2) Collagen invasion assays were performed as described previously (45). Briefly, 1×10^5 CRC cells were seeded on type I collagen-coated 6-well plates and treated with CM derived from 5×10^5 BM-MSC or T-MC supplemented with DMEM 10% FBS and antibiotics as indicated.
(§3) Morphology and invasion into collagen was analysed after 24 hours and quantified by means of the factor shape ([perimeter]^2/[4πarea]) and invasion index. The number of invasive and noninvasive cells was counted in 10 randomly selected microscopic fields with a 20× objective and 10× eye piece by two blinded observers using an inverted phase-contrast microscope (DMI 3000B; Leica, Wetzlar, Germany). The invasion index was calculated as the ratio of the number of cells that invaded the gel divided by the total number of cells counted in each field. Collagen matrices were fixed in 3% paraformaldehyde for 10 minutes and phalloidin-TRITC (Sigma-Aldrich) staining as described (45). Cells were imaged with a Zeiss 510 META confocal laser-scanning microscope (Carl Zeiss, Micro-imaging Inc., Heidelberg, Germany) using a 488 argon and a 543 HeNe laser. Images were acquired using a Plan Apochromat 63×/1.4 oil DIC or a Plan Apochromat 100×/1.4 oil DIC objective. All the images shown are collapsed z-stacks.

[3] = tested on: HER3; experiment: Western blot of Y1289 p-HER3 (HER3 activation) in HCT-8/E11 cells; assay type: cell-based, human; details: for decrease in CM^BM-MSC-induced HER3 activation (Y1289 p-HER3): HCT-8/E11, CM^BM-MSC 15 minutes, cetuximab 3 μM, lapatinib 1 μM, trastuzumab and pertuzumab 25 μg/ml
Procedure: as §1

[4] = tested on: HCT-8/E11+BM-MSC xenografts; experiment: s.c. xenografts of HCT-8/E11 cells with BM-MSC in Swiss nu/nu mice; assay type: in vivo
Procedure: Animal studies were approved by the Local Ethical Committee for Animal Experiments, Faculty of Medicine and Health Sciences, Ghent University, Belgium. Four-week-old female Swiss nu/nu mice (10 animals per group) (Charles River Laboratories, Brussels, Belgium) were inoculated subcutaneously (s.c.) with 10^6 CRC cells (HCT-8/E11, SW480 and HCT 116) either alone or combined with 2×10^6 BM-MSC suspended in 100 μl sterile PBS. To assess the effect of soluble factors on tumorigenesis, mice were inoculated s.c. with 10^6 cancer cells in 100 μl sterile CM derived from 2.5×10^6 BM-MSC, or control medium. For these experiments, intratumoral injection of the CM (50 μl) was performed every three days. […] Tumor volume was estimated by using the equation, V=0.4×a×b^2, where V is the volume, a is the length of the major axis of the tumor, and b is the length of its minor axis. he animals were sacrificed when the tumors were approximately 1-1.5 cm^3, in compliance with regulations for the use of vertebrate animals in research. Primary tumors were extracted, weighted and fixed in 4% buffered formol for 12 hours, followed by a wash with PBS. Fixed tumors were transferred to 70% ethanol until use. Tumors were embedded in paraffin, sectioned and stained with H&E. Immunohistochemistry (IHC) using TUNEL, anti-α-SMA (Biogenex), anti-vimentin and anti-Ki67 antibodies was performed on paraffin sections, using a NexES automated slide staining system (Ventana Medical Systems, Tucson, Ariz.). Cell proliferation (Ki67 positivity) was quantified as % of positive cancer cells per high power field averaged across 12 images from 2 primary tumors per cell line.

[5] = tested on: HCT-8/E11 cells; experiment: Assessment of cell numbers (viable cells, serum-free); assay type: cell-based, human
Procedure: To assess the effect of rNRG-β1 or CM on cell numbers, a total of 9 wells of seeded cells were counted for each condition (triplicate samples×3 countings). First, 1×10^4 CRC cells were seeded on a 6-well plate in DMEM supplemented with 10% FCS. After 24 hours, cells were treated as indicated under serum-free conditions; medium was changed every 3 days. The total number of viable cells in each well was counted with a Countess automated cell counter (Invitrogen) every three days for 9 days; trypan blue staining was used for exclusion of dead cells.

[6] = biological target: HER3 (human) (UniProt P21860); experiment: cell-based or functional assay
[7] = tested on: SW480 cells; experiment: Single cell collagen invasion assay, SW480; assay type: cell-based, human; details: SW480, 10 ng/ml, 24 hours, P=0.003
Procedure: as §2, §3

[8] = tested on: HCT 116 cells; experiment: Single cell collagen invasion assay, HCT 116; assay type: cell-based, human; details: HCT 116, 10 ng/ml, 24 hours, P=0.007
Procedure: as §2, §3

[9] = tested on: PARP; experiment: Western blot of PARP cleavage in HCT 116; assay type: cell-based, human; details: HCT 116, 10 ng/ml, 6 hours, compared to controls
Procedure: as §1, with “Samples were run on NuPAGE 4%-20% Bis-Tris gradient gels (Invitrogen), transferred to polyvinylidene fluoride membranes, blocked in 5% nonfat milk in PBS or 4% bovine serum albumin (BSA) in PBS for phosphorylated proteins with 0.5% Tween-20, and immunostained.” left out

[10] = tested on: HER2; experiment: Western blot of Y1196 and Y1248 p-HER2 in HCT-8/E11; assay type: cell-based, human; details: 10 ng/ml, 15 minutes
Procedure: as §1, with “Samples were run on NuPAGE 4%-20% Bis-Tris gradient gels (Invitrogen), transferred to polyvinylidene fluoride membranes, blocked in 5% nonfat milk in PBS or 4% bovine serum albumin (BSA) in PBS for phosphorylated proteins with 0.5% Tween-20, and immunostained.” left out

[11] = tested on: BAX/BCL-2; experiment: Western blot of BAX and BCL-2 expression in HCT-8/E11; assay type: cell-based, human; details: HCT-8/E11, 10 ng/ml, 6 hours
Procedure: as §1, with “Samples were run on NuPAGE 4%-20% Bis-Tris gradient gels (Invitrogen), transferred to polyvinylidene fluoride membranes, blocked in 5% nonfat milk in PBS or 4% bovine serum albumin (BSA) in PBS for phosphorylated proteins with 0.5% Tween-20, and immunostained.” left out

[12] = tested on: BAD; experiment: Western blot of S136 p-BAD in HCT-8/E11; assay type: cell-based, human; details: rNRG-β1-treated HCT-8/E11
Procedure: as §1, with “Samples were run on NuPAGE 4%-20% Bis-Tris gradient gels (Invitrogen), transferred to polyvinylidene fluoride membranes, blocked in 5% nonfat milk in PBS or 4% bovine serum albumin (BSA) in PBS for phosphorylated proteins with 0.5% Tween-20, and immunostained.” left out

pertuzumab: recombinant, humanized mAb that specifically binds HER2 and prevents HER2 homo- and HER2/HER3 heterodimerisation
reduction of AKT activation (S473 p-AKT) in CM^BM-MSC-treated cells [1]: 79% | CM^T-MC-increased invasion ([2]; HCT-8/E11, 24 hours, pertuzumab 25 μg/ml): partly inhibited | CM^BM-MSC-induced invasion (invasion index) [2]: blocked | CM^BM-MSC-induced morphological response (factor shape) [2]: blocked | decrease in CM^BM-MSC-induced HER3 activation (Y1289 p-HER3) [3]: 67% | BM-MSC-enhanced tumorigenesis of HCT-8/E11 cells ([4]; 600 μg/mouse i.p.): significantly delayed | tumor weight ([4]; 600 μg/mouse i.p. three times a week, P=0.004): decreased | tumor volume ([4]; 600 μg/mouse i.p. three times a week, P=0.035): reduced | Ki67 proliferation index, difference vehicle vs treatment ([4]; 95% CI −4.8 to 15.2, P=0.276): 5.2 | Ki67 proliferation index ([4]; viable areas of resected xenografts): did not significantly affect | CM^BM-MSC-induced CRC cell survival (total number of viable cells) ([5]; pertuzumab 25 μg/ml, HCT-8/E11): significantly decreased | number of viable cells under control conditions ([5]; pertuzumab 25 μg/ml, no CM): no statistically significant effect | CM^T-MC-increased growth of HCT-8/E11 cells (trophic effect) ([5]; pertuzumab 25 μg/ml, serum-free): blocked

Cn1ncc(Cl)c1-c1cc(C(=O)N[C@H](CN)Cc2ccc(F)c(F)c2)oc1Cl [GSK2141795]
CM^BM-MSC-induced invasion ([2]; 0.1 μM, 24 hours): able to block | CM^BM-MSC-induced invasion ([2]; 1 μM, 24 hours): able to block

CS(=O)(=O)CCNCc1ccc(-c2ccc3ncnc(Nc4ccc(OCc5cccc(F)c5)c(Cl)c4)c3c2)o1 [lapatinib]
reduction of AKT activation (S473 p-AKT) in CM^BM-MSC-treated cells [1]: 82% | CM^BM-MSC-induced invasion (invasion index) [2]: blocked | CM^BM-MSC-induced morphological response (factor shape) [2]: blocked | decrease in CM^BM-MSC-induced HER3 activation (Y1289 p-HER3) [3]: 72%

Recombinant human NRG-β1 EGF domain (from UniProt Q02297 177-241) (ligand)
Y1289 p-HER3 in HCT-8/E11 cells, Western blot, 15 minutes [6]: 0.25 ng/mL

B1: rNRG-β1: Recombinant human NRG-β1 EGF domain supplied by R&D Systems (protein)
chain: SHLVKCAEKEKTFCVNGGECFMVKDLSNPSRYLCKCPNEFTGDRCQNYVMASFYKHLGIEFMEAE
morphological changes and invasion into a collagen matrix [7]: induced | levels of S473 p-AKT ([1]; rNRG-β1-treated HCT-8/E11): higher levels | morphological changes and invasion into a collagen matrix [8]: induced | PARP cleavage [9]: reduced | HER2 activation [10]: induced HER2 activation | BAX/BCL-2 ratio [11]: reduced | levels of S136 p-BAD [12]: higher levels | morphological changes and invasion into a collagen matrix ([2]; HCT-8/E11, 10 ng/ml, 24 hours, P=0.049): induced | concentration at which phosphorylation of HER3 was significant ([3]; HCT-8/E11, 15 minutes): 0.25 ng/mL | HCT-8/E11 cell number ([5]; 0.1, 1, 10 ng/ml, serum-free, P=0.002 at 10 ng/ml): dose-dependent increase
